Where a name gives a salt, the structure may show the parent alone.
These compounds were tested on Human platelet aggregation caused by ADP (assay: Inhibition of ADP-induced platelet aggregation (Mimic-human PRP)). Conditions: 20 μM ADP, human platelet concentrate diluted with PPP, absorption at 595 nm.
Format: cell-based
Protocol: Platelet Preparation for Aggregation Studies
Human platelet aggregation reaction test is a functional experiment method to verify whether a test compound is an agonist or an antagonist to ADP receptor. […] The platelet product isolated from whole blood was purchased from Chung-Nam blood center (Dae-joen, South Korea). The platelet was isolated from 400 mL of whole blood containing 56 mL of CPDA-1 anticoagulant. To isolate the platelet product, 400 mL of whole blood was centrifuged at 260×g for 5 minutes, and then obtained PRP (platelet rich plasma) was secondary centrifuged at 370×g for 6 minutes. Platelet pellet (10^9/mL) was suspended with 45 mL of plasma and then agitated over 1 hour at 22° C. blood reservoir to stabilize it. The stabilized platelet product was used in the experiment within 24 hours. PCs (Platelet Concentrates) were gently transferred to a new 50 ml-falcon tube. The number of platelet was counted by using animal blood counter (ABC Vet, ABX diagnostics, France). The volume of 30 mL of PCs collected from same donor was centrifuged at 1500 g for 10 min at room temperature to prepare platelet-poor plasma (PPP). The platelet count was adjusted to platelet number of 3˜4×10^8/mL by diluting with PPP.
Evaluation on Inhibitory Effect of ADP-Induced Aggregation
Inhibition of ADP-induced aggregation was determined in 96-well flat-bottom plates (Costar, USA) at room temperature. The diluted platelet was aliquoted into each well of 96 well plate in the volume of 188 μl. […] The platelet including test compounds was immediately mixed on a shaker at 1050 rpm for 1 min and incubated at room temperature for 20 min. Then, 10 μL volume of 400 μM ADP was added: the final concentration of 20 μM ADP in the total reaction volume of 0.2 mL/well. After shaking of the plate at room temperature for 3 min, the absorption of the samples was determined at 595 nm using a microtiter plate reader (Softmax, Molecular Devices).
A dose-dependent curve on serial dilutions of ADP was accomplished by adding vehicle (DMSO) instead of antagonists in order to calculate EC50 of ADP. Inhibition of aggregation was calculated from the increase of absorption at 595 nm at 3 min of the reaction incubation, compared to results of absorption between the 0 and 20 μM ADP control without antagonists. Sigmoidal dose-response curves and Ki were derived by non-linear regression analysis using the Prism software (GraphPad, San Diego Calif.).

Point of comparison: `CCCc1cc2c(N3CCn4c(nnc4C(F)(F)F)C3)nc(N3CC4OC(=O)N[C@H]4C3)nc2s1` (stereo partly drawn) [Example 7-26, (S)-5-[6-Propyl-4-(3-trifluoromethyl-5,6-dihydro-8H-[1,2,4]triazolo[4,3-a]pyrazin-7-yl)-thieno[2,3-d]pyrimidin-2-yl]-hexahydro-pyrrolo[3,4-d]oxazol-2-one], Ki 2.1 nM. Against it:
- CCCC(=O)N1CCN(c2nc(N3CCn4c(nnc4C(F)(F)F)C3)c3cc(CCC)sc3n2)CC1 [Example 7-15, Hydrochloric acid salt of 1-{4-[6-Propyl-4-(3-trifluoromethyl-5,6-dihydro-8H-[1,2,4]triazolo[4,3-a]pyrazin-7-yl)-thieno[2,3-d]pyrimidin-2-yl]-piperazin-1-yl}-butan-1-one] — 290-fold higher, 600 nM
- CCCc1cc2c(N3CCn4c(nnc4C(F)(F)F)C3)nc(N3CCN(C(=O)C(C)C)CC3)nc2s1 [Example 7-16, Hydrochloric acid salt of 2-Methyl-1-{4-[6-propyl-4-(3-trifluoromethyl-5,6-dihydro-8H-[1,2,4]triazolo[4,3-a]pyrazin-7-yl)-thieno[2,3-d]pyrimidin-2-yl]-piperazin-1-yl}-propan-1-one] — 280-fold higher, 590 nM
- CCCc1cc2c(N3CCn4c(nnc4C(F)(F)F)C3)nc(N3CC(O)C(NC(C)=O)C3)nc2s1 (stereo not shown) [Example 7-17, N-{4-Hydroxy-1-[6-propyl-4-(3-trifluoromethyl-5,6-dihydro-8H-[1,2,4]triazolo[4,3-a]pyrazin-7-yl)-thieno[2,3-d]pyrimidin-2-yl]-pyrrolidin-3-yl}-acetamide] — within 1.5-fold, 2.8 nM
- CCCc1cc2c(N3CCn4c(nnc4C(F)(F)F)C3)nc(N3CC(NC(C)=O)C(OC(C)=O)C3)nc2s1 (stereo not shown) [Example 7-18, Acetic acid 4-acetylamino-1-[6-propyl-4-(3-trifluoromethyl-5,6-dihydro-8H-[1,2,4]triazolo[4,3-a]pyrazin-7-yl)-thieno[2,3-d]pyrimidin-2-yl]-pyrrolidin-3-yl ester] — 3.1-fold higher, 6.5 nM
- CCCC(=O)NC1CN(c2nc(N3CCn4c(nnc4C(F)(F)F)C3)c3cc(CCC)sc3n2)CC1O (stereo not shown) [Example 7-19, N-{4-Hydroxy-1-[6-propyl-4-(3-trifluoromethyl-5,6-dihydro-8H-[1,2,4]triazolo[4,3-a]pyrazin-7-yl)-thieno[2,3-d]pyrimidin-2-yl]-pyrrolidin-3-yl}-butyramide] — 2.4-fold higher, 5 nM
- CCCc1cc2c(N3CCn4c(nnc4C(F)(F)F)C3)nc(N3CC(O)C(NC(=O)C(C)C)C3)nc2s1 (stereo not shown) [Example 7-20, N-{4-Hydroxy-1-[6-propyl-4-(3-trifluoromethyl-5,6-dihydro-8H-[1,2,4]triazolo[4,3-a]pyrazin-7-yl)-thieno[2,3-d]pyrimidin-2-yl]-pyrrolidin-3-yl}-isobutyramide] — 2.3-fold higher, 4.8 nM
- CCCc1cc2c(N3CCn4c(nnc4C(F)(F)F)C3)nc(N3CC(O)C(NC(=O)C(C)(C)C)C3)nc2s1 (stereo not shown) [Example 7-21, N-{4-Hydroxy-1-[6-propyl-4-(3-trifluoromethyl-5,6-dihydro-8H-[1,2,4]triazolo[4,3-a]pyrazin-7-yl)-thieno[2,3-d]pyrimidin-2-yl]-pyrrolidin-3-yl}-2,2-dimethyl-propionamide] — 10-fold higher, 21 nM
- CCCc1cc2c(N3CCn4c(nnc4C(F)(F)F)C3)nc(N3CC(O)C(NC(=O)CO)C3)nc2s1 (stereo not shown) [Example 7-22, 2-Hydroxy-N-{4-hydroxy-1-[6-propyl-4-(3-trifluoromethyl-5,6-dihydro-8H-[1,2,4]triazolo[4,3-a]pyrazin-7-yl)-thieno[2,3-d]pyrimidin-2-yl]-pyrrolidin-3-yl}-acetamide] — 1.9-fold higher, 4 nM
- CCCc1cc2c(N3CCn4c(nnc4C(F)(F)F)C3)nc(N3CC(O)C(NC(=O)C(C)(C)O)C3)nc2s1 (stereo not shown) [Example 7-23, 2-Hydroxy-N-{4-hydroxy-1-[6-propyl-4-(3-trifluoromethyl-5,6-dihydro-8H-[1,2,4]triazolo[4,3-a]pyrazin-7-yl)-thieno[2,3-d]pyrimidin-2-yl]-pyrrolidin-3-yl}-2-methyl-propionamide] — 5.7-fold higher, 12 nM
- CCCc1cc2c(N3CCn4c(nnc4C(F)(F)F)C3)nc(N3CC(O)C(NC(=O)C(C)(CO)CO)C3)nc2s1 (stereo not shown) [Example 7-24, 3-Hydroxy-2-hydroxymethyl-N-{4-hydroxy-1-[6-propyl-4-(3-trifluoromethyl-5,6-dihydro-8H-[1,2,4]triazolo[4,3-a]pyrazin-7-yl)-thieno[2,3-d]pyrimidin-2-yl]-pyrrolidin-3-yl}-2-methyl-propionamide] — 7.1-fold higher, 15 nM
- CCCc1cc2c(N3CCn4c(nnc4C(F)(F)F)C3)nc(N3CC(O)C(NC(=O)C(C)(C)CO)C3)nc2s1 (stereo not shown) [Example 7-25, 3-Hydroxy-N-{4-hydroxy-1-[6-propyl-4-(3-trifluoromethyl-5,6-dihydro-8H-[1,2,4]triazolo[4,3-a]pyrazin-7-yl)-thieno[2,3-d]pyrimidin-2-yl]-pyrrolidin-3-yl}-2,2-dimethyl-propionamide] — 8.6-fold higher, 18 nM
- CCCc1cc2c(N3CCn4c(nnc4C(F)(F)F)C3)nc(N3CC(N)C(N)C3)nc2s1 (stereo not shown) [Example 7-27, Di-hydrochloric acid salt of 1-[6-Propyl-4-(3-trifluoromethyl-5,6-dihydro-8H-[1,2,4]triazolo[4,3-a]pyrazin-7-yl)-thieno[2,3-d]pyrimidin-2-yl]-pyrrolidine-3,4-diamine] — 8.1-fold higher, 17 nM
- CCCc1cc2c(N3CCn4c(nnc4C(F)(F)F)C3)nc(N3CC(NC(C)=O)C(NC(C)=O)C3)nc2s1 (stereo not shown) [Example 7-28, N-{4-Acetylamino-1-[6-propyl-4-(3-trifluoromethyl-5,6-dihydro-8H-[1,2,4]triazolo[4,3-a]pyrazin-7-yl)-thieno[2,3-d]pyrimidin-2-yl]-pyrrolidin-3-yl}-acetamide] — 20-fold higher, 42 nM
- CCCc1cc2c(N3CCn4c(nnc4C(F)(F)F)C3)nc(OCCNC(C)=O)nc2s1 [Example 7-29, N-{2-[6-Propyl-4-(3-trifluoromethyl-5,6-dihydro-8H-[1,2,4]triazolo[4,3-a]pyrazin-7-yl)-thieno[2,3-d]pyrimidin-2-yloxy]-ethyl}-acetamide] — within 1.5-fold, 3.1 nM
- CCCC(=O)NCCOc1nc(N2CCn3c(nnc3C(F)(F)F)C2)c2cc(CCC)sc2n1 [Example 7-30, N-{2-[6-Propyl-4-(3-trifluoromethyl-5,6-dihydro-8H-[1,2,4]triazolo[4,3-a]pyrazin-7-yl)-thieno[2,3-d]pyrimidin-2-yloxy]-ethyl}-butyramide] — 3.4-fold higher, 7.2 nM
- CCCc1cc2c(N3CCn4c(nnc4C(F)(F)F)C3)nc(OCCNC(=O)C(C)C)nc2s1 [Example 7-31, N-{2-[6-Propyl-4-(3-trifluoromethyl-5,6-dihydro-8H-[1,2,4]triazolo[4,3-a]pyrazin-7-yl)-thieno[2,3-d]pyrimidin-2-yloxy]-ethyl}-isobutyramide] — 5.7-fold higher, 12 nM
- CCCc1cc2c(N3CCn4c(nnc4C(F)(F)F)C3)nc(OCCNC(=O)CO)nc2s1 [Example 7-32, 2-Hydroxy-N-{2-[6-propyl-4-(3-trifluoromethyl-5,6-dihydro-8H-[1,2,4]triazolo[4,3-a]pyrazin-7-yl)-thieno[2,3-d]pyrimidin-2-yloxy]-ethyl}-acetamide] — 2.6-fold lower, 0.8 nM
- CCCc1cc2c(N3CCn4c(nnc4C(F)(F)F)C3)nc(OCCNC(=O)C(C)(C)O)nc2s1 [Example 7-33, 2-Hydroxy-2-methyl-N-{2-[6-propyl-4-(3-trifluoromethyl-5,6-dihydro-8H-[1,2,4]triazolo[4,3-a]pyrazin-7-yl)-thieno[2,3-d]pyrimidin-2-yloxy]-ethyl}-propionamide] — 3.2-fold higher, 6.7 nM

From US20110166121A1 (LG LIFE SCIENCES LTD., priority 2008, published 2011)
